Laboratory results taken from patent US6544930B2, “Compact storage and shipping system for glyphosate herbicide” (Monsanto Technology LLC, priority 1998, dated 2003).
Where a name gives a salt, the structure may show the parent alone.

How the values were obtained:
[1] = Specific gravity / density of aqueous glyphosate salt solutions and compositions (Mettler DA-300 meter); assay type: physicochemical
Method: Specific gravities are measured using a Mettler DA-300 Density/Specific Gravity Meter.
In a 1 liter glass vessel with magnetic stirrer are mixed 479.2 g glyphosate acid, technical grade (assay 96%), 166.0 g monoethanolamine and water to 1000 g. Reaction of the glyphosate acid with the monoethanolamine to form the MEA salt of glyphosate is exothermic. The reaction mixture is allowed to cool to room temperature. […] The density of the solution at 25° C. is […], thus the volume at 25° C. of 1000 g of this solution is 763 ml and the weight/volume concentration of glyphosate is 602 g a.e./l.
A series of aqueous solutions of glyphosate MEA salt, having a range of glyphosate a.e. concentrations, are prepared by the general procedure of Example 1. Specific gravity is measured for each solution.
[…] Cloud point is a measure of the maximum temperature at which a given aqueous composition containing a surfactant and a salt at defined concentrations forms a single-phase solution. Above the cloud point, the surfactant separates from the solution, initially as a hazy or cloudy dispersion, and, upon standing, as a distinct phase generally rising to the surface of the solution. Cloud point is determined by heating the composition until the solution becomes cloudy, and then allowing the composition to cool, with agitation, while its temperature is continuously monitored. A temperature reading taken when the solution clears is a measure of cloud point.

[2] = cited from earlier work
[3] = Glyphosate a.e. weight/volume concentration of salt solution; assay type: physicochemical; conditions: for weight/volume concentration of glyphosate: 25° C., 46.0% by weight glyphosate a.e.; for glyphosate a.e. contained in 1 liter of solution: 30% a.e. by weight solution at 20° C.; for more glyphosate a.e. per liter than IPA salt solution: equal a.e. weight concentration (30% a.e. by weight, 20° C.)
Method: Thus 1 liter of 30% a.e. by weight glyphosate potassium salt solution at 20° C. contains approximately 376 g glyphosate a.e./l, whereas 1 liter of 30% a.e. by weight glyphosate IPA salt solution at 20° C. contains approximately 347 g glyphosate a.e./l. In other words, at equal a.e. weight concentration, the potassium salt solution delivers about 8% more glyphosate a.e. per liter.
Similarly, 1 liter of 30% a.e. by weight glyphosate MEA salt solution at 20° C. contains approximately 371 g glyphosate a.e./l. Therefore at equal a.e. weight concentration, the MEA salt solution delivers about 7% more glyphosate a.e. per liter than an IPA salt solution.
In a 1 liter glass vessel with magnetic stirrer are mixed 479.2 g glyphosate acid, technical grade (assay 96%), 166.0 g monoethanolamine and water to 1000 g. Reaction of the glyphosate acid with the monoethanolamine to form the MEA salt of glyphosate is exothermic. The reaction mixture is allowed to cool to room temperature. The specific gravity (20/15.6° C.) of the resulting 62.6% by weight aqueous solution of glyphosate MEA salt, containing 46.0% by weight glyphosate a.e., is measured and found to be 1.32. The density of the solution at 25° C. is […], thus the volume at 25° C. of 1000 g of this solution is 763 ml and the weight/volume concentration of glyphosate is 602 g a.e./l.

[4] = Viscosity of glyphosate salt solutions and compositions; assay type: physicochemical; conditions: 25° C.; 46% a.e. by weight solution without surfactant
Method: Specific gravity (20/15.6° C.), viscosity at 25° C. and cloud point are recorded for each composition prepared as shown in Table 5. Cloud point is a measure of the maximum temperature at which a given aqueous composition containing a surfactant and a salt at defined concentrations forms a single-phase solution. Above the cloud point, the surfactant separates from the solution, initially as a hazy or cloudy dispersion, and, upon standing, as a distinct phase generally rising to the surface of the solution. Cloud point is determined by heating the composition until the solution becomes cloudy, and then allowing the composition to cool, with agitation, while its temperature is continuously monitored. A temperature reading taken when the solution clears is a measure of cloud point.
The maximum surfactant concentration attainable in practice in an aqueous concentrate composition containing glyphosate salt at 540 g a.e./l is compared for MEA and IPA salts. This is determined by adding a selected surfactant in increments to a 46% a.e. by weight aqueous solution of the glyphosate salt until the glyphosate weight/volume concentration falls from its initial level (565 g a.e./l for IPA salt, 602 g a.e./l for MEA salt) to 540 g a.e./l. […] When the maximum attainable surfactant concentration is reached, viscosity is measured at 25° C. […]

Solubility in water = assay type: physicochemical; conditions: 20° C.; for solubility in pure water: weight of salt per weight of solution
Text: Solubility in water of the potassium and MEA salts of glyphosate is believed not to be recorded in prior art but is readily determined by procedures familiar to those skilled in the art. Similarly, aqueous solutions of these salts at concentrations greater than about 40% by weight are believed not to have been specifically disclosed, thus any unusual or unpredicted properties of such solutions have not been publicly known. Concentrations expressed as percent by weight herein relate to parts by weight of salt or acid equivalent per 100 parts by weight of solution.
The solubility of the MEA salt is very similar to the solubility of the IPA salt.

[5] = Maximum attainable surfactant concentration at 540 g a.e./l glyphosate; assay type: physicochemical
Method: The maximum surfactant concentration attainable in practice in an aqueous concentrate composition containing glyphosate salt at 540 g a.e./l is compared for MEA and IPA salts. This is determined by adding a selected surfactant in increments to a 46% a.e. by weight aqueous solution of the glyphosate salt until the glyphosate weight/volume concentration falls from its initial level (565 g a.e./l for IPA salt, 602 g a.e./l for MEA salt) to 540 g a.e./l. The study is conducted using either Surfactant A or Surfactant F of Table 3 above. When the maximum attainable surfactant concentration is reached, viscosity is measured at 25° C.

[6] = 20/18.6° C., 30% a.e. by weight monobasic salt solution
[7] = 20/15.6° C., solution containing 46.0% by weight glyphosate a.e.
[8] = MEA salt solution 29.9% a.e. by weight, IPA salt solution 30.2%

O=C(O)CNCP(=O)(O)O
Specific Gravity [1, 6]: 1.1814

CCN.O=C(O)CNCP(=O)(O)O
Specific Gravity [1, 6]: 1.1599

CCCN.O=C(O)CNCP(=O)(O)O
Specific Gravity [1, 6]: 1.1429

O=C(O)CNCP(=O)(O)O [Glyphosate, N-phosphonomethylglycine]
solubility in water ([2]; 25° C.): 1.16 % by weight

CC(C)N.O=C(O)CNCP(=O)(O)O [glyphosate IPA salt, isopropylammonium salt of glyphosate]
weight/volume concentration of glyphosate [3]: 565 g a.e./l
glyphosate a.e. contained in 1 liter of solution [3]: approximately 347 g glyphosate a.e./l
limit of solubility in aqueous solution ([2]; only slightly higher than about 62% by weight): > 62 % by weight
viscosity [4]: 165 cPs
Specific Gravity [1, 7]: 1.24
Specific Gravity [1, 6]: 1.1554
Specific Gravity [1, 8]: 1.1566

O=C(O)CNCP(=O)(O)O [glyphosate MEA salt, monoethanolammonium salt of glyphosate]
weight/volume concentration of glyphosate [3]: 602 g a.e./l
glyphosate a.e. contained in 1 liter of solution [3]: approximately 371 g glyphosate a.e./l
more glyphosate a.e. per liter than IPA salt solution [3]: about 7%
solubility in pure water as glyphosate acid equivalent (Solubility in water): about 47 % a.e. by weight
solubility in pure water as glyphosate acid equivalent (Solubility in water; listed as MEA salt): about 47 % a.e. by weight
solubility in pure water (Solubility in water): about 64 % by weight
viscosity [4]: 88 cPs
surfactant concentration relative to the maximum attainable using the IPA salt [5]: more than 2.5 times
Specific Gravity [1, 7]: 1.32
Specific Gravity ([1]; 20/18.6° C., 30% a.e. by weight monobasic salt solution, listed as monoethanolammonium (MEA)): 1.2357
specific gravity higher than that of 30.2% IPA salt solution ([1]; 29.9% a.e. by weight MEA salt solution): 3.7%
Specific Gravity [1, 8]: 1.1991
specific gravity compared with corresponding IPA salt solution ([1]; all concentrations, FIG. 1): significantly higher

O=C(O)CNCP(=O)(O)O [glyphosate potassium salt]
glyphosate a.e. contained in 1 liter of solution ([3]; potassium salt): approximately 376 g glyphosate a.e./l
more glyphosate a.e. per liter than IPA salt solution ([3]; potassium salt): about 8%
solubility in pure water as glyphosate acid equivalent (Solubility in water; listed as potassium salt, potassium salt): about 44 % a.e. by weight
solubility in pure water as glyphosate acid equivalent (Solubility in water; potassium salt): about 44 % a.e. by weight
solubility in pure water (Solubility in water; potassium salt): about 54 % by weight
Specific Gravity ([1]; 20/18.6° C., 30% a.e. by weight monobasic salt solution, potassium salt): 1.2539

CN [methylammonium]
Specific Gravity [1, 6]: 1.1667

C[S+](C)C.O=C([O-])CNCP(=O)(O)O [trimethylsulfonium (TMS)]
Specific Gravity [1, 6]: 1.1904
